Read-outs that look alike come from different tables or passages of the source.

The subject of one series is C. trachomatis. Nature of the series: Direct anti-chlamydial effect on C. trachomatis, cultivation in McCoy cells. The format is cell-based. The settings on record: for Effect on C. trachomatis (in words): pretreated host cells; for inhibition at 0.5 µM / inhibition at 50 µM: Chlamydia trachomatis. As to the method: C. trachomatis, cultivation in McCoy cells. The test procedure otherwise the same as with C. pneumoniae.
(§1) As the host cell of C. pneumoniae in in vitro conditions HL cells are used. As the host cells of C. trachomatis in in vitro conditions McCoy cells often are used.
(§2) On the day preceding the infection the host cells are inoculated on a 24-well plate: the cells are harvested by trypsinisation, they are suspended in ca. 5 ml of the nutrition liquid and counted in a Burker's chamber. Each well are seeded using a concentration of 250000-400000 cells/well for cultivation. Before the addition of the cells to the well is if necessary round cover glass (diameter 13 mm) put for staining. Nutrition liquid is added so that the volume is 1 ml/well. On the following day the cells are infected with the desired bacterium.
(§3) Solution to be used in the infection and containing chlamydiae particles is mixed throughout. The old nutrition liquid is aspirated away. By the infection the inoculum which has been stored at −70° C. is diluted to an IFU concentration of ca. 10^3 so that the volume of the solution is at least 200 μl/well on a 24-well plate. The cells are infected by centrifuging at 1600 rpm (550×g)/1 hr. The nutrition medium is aspirated away and changed to a maintenance medium containing cyclohexamide and also containing the studied compound (DMSO concentration 0.2%), 1 ml/well. The cells are incubated in a 5% CO2 atmosphere at +35° C. The cells infected with C. pneumoniae are incubated for 3 days. After 2-3 days the maintenance medium is removed and the cells washed with 1×1 ml of PBS. To the wells 200 μl of SPG are added for further infection, harvested with a pipette tip and transferred into tubes. This is used for infecting new cells in the same way as above to test the inhibition of infectivity (chlamydiasidic effect).
(§4) The nutrition medium, which is above the cover glass left for staining, is aspirated away. The infected cells are fixed on the cover glass with methanol for 10 min. The cover glass is removed from the well and -transferred onto a suitable fluorescein-conjugated monoclonal antibody on Parafilm in a moist chamber with the cell-containing side down. The cover glass is incubated for 30 min at +37° C. and washed twice with PBS and once with water. Finally it is dried. The cover glass is put with the cell-containing side down on an object glass containing a fixative (e.g. Mounting medium). When viewed under the fluorescent microscope, cell culture specimens infacted with chlamydiae show a characteristic apple-green fluorescence of inclusions against a red counterstained background.

The next series deals with HL cells. Nature of the series: Toxicity towards the host cells, Trypan blue staining, no infection. In kind it is cell-based, human. On the procedure:
The determination was performed as in the previous tests but without any infection. The viability was determined with Trypan blue staining.

A further series has as its system Ca^2+ intake in the cell. Description: Effect of the compounds on the calcium influx (Ca2+ intake) to the cell. In kind it is cell-based. To be noted: compound 20 μg/ml; − = decrease, + = increase. The text has this:
(§5) In the following Table I some of the preferred plant-derived phenolic compounds according to the present invention, the effect of the compounds on the calcium influx to the cell, the antioxidant effect as well as the chemical structure of the compounds are presented.

The test system of series [1] is C. pneumoniae K7 strain (clinical isolate). Nature of the series: Direct anti-chlamydial effect (inhibition of formation of inclusions), HL host cells. In kind it is cell-based. The settings on record: for inhibition at 0.5 µM / inhibition at 50 µM: Chlamydia pneumoniae, read-out: Inhibition % of the DMSO control (pre-treated).
The test system is the same in series [2]. The description is as above. To be noted: for Inhibition of the growth of C. pneumoniae (in words): concentration of 0.5-50 μg; for inhibition at 0.5 µM / inhibition at 50 µM: Chlamydia pneumoniae, read-out: Inhibition % of the DMSO control. In kind it is cell-based.
Source text: The Direct Anti-Chlamydial Effect of Plant-Derived Phenolic Compounds (As Inhibition of Formation of Inclusions)/C. pneumoniae K7 Strain (Clinical Isolate)
(§6) The cultivated HL cells are infected with C. pneumoniae EB's. The EB's which have invaded the cell are changed into the metabolically active reticulate body (RB) which are dividing by binary fission in the endosome vacuole or inclusion.
(§7) After a certain time (about 72 hr) the C. pneumoniae RB's are condensing back into EB's, after which the inclusions are broken, the host cells are broken and the EB's are liberated. In this method the intention is to verify the inclusions before the breaking up of the host cells.
as §1, §2, §3, §4

Series [3] has as its system C. pneumoniae. Description: Inhibition of the infectivity (chlamydiasidic effect), re-infection of new cells. The format is cell-based. To be noted: for inhibition at 0.5 µM / inhibition at 50 µM: Chlamydia pneumoniae. On the procedure: Inhibition of the Infectivity/C. pneumoniae
as §3, §4

Series [4] concerns C. pneumoniae. Description: Direct anti-chlamydial effect of compounds and mixtures on C. pneumoniae (Example 5). In kind it is cell-based. To be noted: 50 μM; for inhibition at 50 µM: Chlamydia pneumoniae, read-out: Inhibition %. As to the method: Direct Anti-Chlamydial Effect of Plant-Derived Phenolic Compounds, Certain Synthetic Compounds and Mixtures on C. pneumoniae
The concentration used was 50 μM.
as §6, §7, §2, §3, §4

A short description of series [5]: Antioxidant effect, IC50 against DPPH. The format is biochemical. To be noted: read-out: IC50 [moles L^−1] against DPPH′.
Source text: as §5
For orientation: DPPH is a stable violet radical that fades when it is reduced.

Where [6] appears, read: 0.5 μM, host cells incubated 1 day with compound before infection.
Setting [7] is: 50 μM, host cells incubated 1 day with compound before infection.
[8] abbreviates: 0.5 μM, formation of inclusions.
[9] abbreviates: 0.5 μM, McCoy cells pre-treated 1 day, read-out: Inhibition % of the DMSO control (pre-treated).
The mark [10] stands for this setting: 0.5 μM, McCoy cells, read-out: Inhibition % of the DMSO control.
Setting [11] is: 50 μM, McCoy cells pre-treated 1 day, read-out: Inhibition % of the DMSO control (pre-treated).
[12] abbreviates: 50 μM, McCoy cells, read-out: Inhibition % of the DMSO control.
[13] abbreviates: 0.5 μM, host cells pre-treated 1 day, read-out: Inhibition % of the DMSO control (pre-treated).
Where [14] appears, read: 0.5 μM, read-out: Inhibition % of the DMSO control.
Setting [15] is: 50 μM, host cells pre-treated 1 day, read-out: Inhibition % of the DMSO control (pre-treated).
The mark [16] stands for this setting: 50 μM, read-out: Inhibition % of the DMSO control.

By IC50 is commonly meant the concentration at which inhibition is half-maximal. For `O=c1c(O)c(-c2ccc(O)cc2O)oc2cc(O)cc(O)c12` [Morin], the “Inhibition % of the DMSO control” value in the series with C. trachomatis (0.5 μM, McCoy cells) is given as 0%; in the series with C. trachomatis (50 μM, McCoy cells) it was 0%; in series [2] (setting [8]), 80%; in series [2] (50 μM, formation of inclusions), 99%; in the series on C. pneumoniae [3] (0.5 μM), 81%; in the series with C. pneumoniae [3] (50 μM), 94%. The “Inhibition % of the DMSO control (pre-treated)” value was determined as 100% in the series with C. trachomatis (0.5 μM, McCoy cells pre-treated 1 day); 100% in the series on C. trachomatis (50 μM, McCoy cells pre-treated 1 day); 62% in series [1] (setting [6]); 96% in series [1] (setting [7]); 53% in the series with C. pneumoniae [3] (0.5 μM, host cells pre-treated 1 day); 76% in the series with C. pneumoniae [3] (50 μM, host cells pre-treated 1 day). For the same molecule, in the series on C. trachomatis, the “Effect on C. trachomatis (in words)” value is recorded as “particularly effective”. In addition, the “Toxicity test HL-C” value is 8.3% in the series on HL cells (0.005 μM); 9.0% in the series on HL cells (0.05 μM); 8.4% in the series with HL cells (0.5 μM); 8.3% in the series on HL cells (5 μM); 11.2% with HL cells (50 μM). In addition, the “Toxicity test HL-C (pre-treated)” value in the series on HL cells (0.005 μM) turned out to be 14.4%; with HL cells (0.05 μM), 8.1%; in the series on HL cells (0.5 μM), 6.4%; in the series on HL cells (5 μM), 12.7%; with HL cells (50 μM) it was 9.7%. For the same molecule, in the series with Ca^2+ intake in the cell, the “Effect on Ca^2+ intake [%]” value is “+48.0%”. Further, in series [2], the “Inhibition of the growth of C. pneumoniae (in words)” value (“Inhibition … (in words)” for short) is on record as “inhibited the growth”. Moreover, in the series with C. pneumoniae [4], the Inhibition % was found to be 100%. Moreover, the IC50 in series [5] was 23.9 µM.
One may read the inhibition as the drop in the measured response relative to a control, in per cent. With `CCCCCCCCOC(=O)c1cc(O)c(O)c(O)c1` [Octyl gallate], the inhibition at 0.5 µM in the series with C. trachomatis (setting [9]) was 0%; in the series on C. trachomatis (setting [10]) it was 0%; in series [1], 62%; in series [2] it was 82%; in the series on C. pneumoniae [3] (setting [13]), 42%; with C. pneumoniae [3] (setting [14]) it was 59%. The inhibition at 50 µM with C. trachomatis (setting [11]) came to 88%; in the series on C. trachomatis (setting [12]), 14%; in series [1] it was 100%; in series [2], 100%; with C. pneumoniae [3] (setting [15]), 100%; in the series on C. pneumoniae [3] (setting [16]) it was 100%. Moreover, in the series on C. pneumoniae [4], the inhibition at 50 µM was determined as 100%. Also, the “Toxicity test HL-C” value is reported as 8.0% with HL cells (0.005 μM); 7.4% in the series with HL cells (0.05 μM); 7.9% in the series with HL cells (0.5 μM); 8.8% with HL cells (5 μM); 16.4% in the series with HL cells (50 μM). Besides, the “Toxicity test HL-C (pre-treated)” value in the series with HL cells (0.005 μM) is 7.0%; in the series on HL cells (0.05 μM), 7.1%; in the series with HL cells (0.5 μM), 5.0%; with HL cells (5 μM), 8.5%; with HL cells (50 μM), 14.8%. For the same molecule, the inhibition at 20 µg/mL with Ca^2+ intake in the cell worked out at 92.2%. In series [2], the “Inhibition … (in words)” value is “inhibited the growth”. For the same molecule, the IC50 in series [5] stood at 17 µM.
Turning to `CCCOC(=O)c1cc(O)c(O)c(O)c1` [Propyl Gallate], the inhibition at 20 µg/mL in the series with Ca^2+ intake in the cell came to 37.9%. In addition, the inhibition at 50 µM with C. pneumoniae [4] amounted to 100%. Moreover, the IC50 in series [5] was 13.3 µM.
Take `O=c1c(O)c(-c2ccc(O)c(O)c2)oc2cc(O)cc(O)c12` [Quercetin]: the inhibition at 0.5 µM in the series on C. trachomatis (setting [9]) is 20%; with C. trachomatis (setting [10]), 0%; in series [1] (setting [6]), 77%; in series [2] (setting [8]), 68%; with C. pneumoniae [3] (setting [13]), 0%; in the series on C. pneumoniae [3] (setting [14]), 58%. In addition, the inhibition at 50 µM in the series on C. trachomatis (setting [11]) came to 100%; with C. trachomatis (setting [12]) it was 0%; in series [1] (setting [7]) it was 90%; in series [2] (50 μM, formation of inclusions) it was 90%; with C. pneumoniae [3] (setting [15]), 0%; in the series on C. pneumoniae [3] (setting [16]), 76%. Further, the inhibition at 50 µM with C. pneumoniae [4] was found to be 90%. Also, in the series with C. trachomatis, the “Effect on C. trachomatis (in words)” value is “particularly effective”. In addition, the “Toxicity test HL-C” value came out at 7.4% in the series on HL cells (0.005 μM); 11.7% in the series on HL cells (0.05 μM); 7.0% in the series on HL cells (0.5 μM); 9.2% in the series with HL cells (5 μM); 10.5% with HL cells (50 μM). The “Toxicity test HL-C (pre-treated)” value with HL cells (0.005 μM) is reported as 7.9%; in the series with HL cells (0.05 μM), 7.2%; in the series with HL cells (0.5 μM), 3.3%; in the series with HL cells (5 μM) it was 8.1%; in the series on HL cells (50 μM), 10.5%. Further, the inhibition at 20 µg/mL with Ca^2+ intake in the cell was -54.1%. The “Inhibition … (in words)” value in series [2] is listed as “inhibited the growth”. The IC50 in series [5] is 10.7 µM.
With `C[C@@H]1O[C@@H](Oc2c(-c3ccc(O)c(O)c3)oc3cc(O)cc(O)c3c2=O)[C@H](O)[C@H](O)[C@H]1O` [Quercitrin], the “Effect on Ca^2+ intake [%]” value in the series on Ca^2+ intake in the cell is “+20.1%”. Further, in the series with C. pneumoniae [4], the Inhibition % is listed as 50%. Also, the IC50 in series [5] amounted to 12.9 µM.
Turning to `C[C@@H]1O[C@@H](OC[C@H]2O[C@@H](Oc3c(-c4ccc(O)c(O)c4)oc4cc(O)cc(O)c4c3=O)[C@H](O)[C@@H](O)[C@@H]2O)[C@H](O)[C@H](O)[C@H]1O` [Rutin], the “Effect on Ca^2+ intake [%]” value with Ca^2+ intake in the cell is listed as −3.88%. In addition, the Inhibition % in the series with C. pneumoniae [4] turned out to be 46%. In series [5], the IC50 came to 10.2 µM.
As to `COc1cc(C(=O)O)cc(OC)c1O` [Syringic acid], in the series on Ca^2+ intake in the cell, the inhibition at 20 µg/mL was 10.9%. Moreover, the inhibition at 50 µM with C. pneumoniae [4] was 32%. Also, the IC50 in series [5] came out at 32.6 µM.

The values are drawn from patent US20040058983A1, “Plan-derived and synthetic phenolic compounds and plant extracts, effective in the treatment and prevention of chlamydial infections” (priority 2000, published 2004).
